Experimental findings from patent US20030040436A1 (priority 2000, published 2003) are described below.

For one data set, the system named is moss. The data set is described as follows: Control of moss on greenhouse wall and ground. To be noted: 5% (w/v), sprayed to run-off, one application, within 24 hours.
Data set [1] relates to Tiffway hybrid bermudagrass and SR1020 bentgrass. The data set is described as follows: Phytotoxic field testing on grass test surfaces. To be noted: highest concentration (0.8% w/v), one square foot test surfaces. Format: in vivo. The text has this:
This formulation was applied to two grass species, Tiffway hybrid bermudagrass and SR1020 bentgrass. One square foot test surfaces of each grass type were used. The test formulation was applied to test surfaces in dilutions corresponding to 0.8, 0.3, and 0.1% (w/v) benzyl benzoate.

Data set [2] relates to Phormidium algae. The experiment in a line: Well-plate assay of algicidal activity. To be noted: for Lethality: 24 hours under fluorescent light.
Experimental: Liquid cultures of Phormidiumalgae were homogenized into individual cells in a standard laboratory blender apparatus. One hundred fifty μl of the homogenized algal suspension were added to the wells of 96-well assay plates using multitip-transfer pipettes. To each well, 150 μl of various dilutions of the test formulation were added, such that final concentrations of bcnzyl benzoate in the test wells were 0.8%, 0.3%, and 0.1%. The plates were allowed to incubation under fluorescent light for 24 hours.
The subject of data set [3] is Phormidium algae. The experiment in a line: Field test, spray application: control of algae on turfgrass. Format: in vivo. To be noted: single spray application, several days following. An excerpt:
(§1) Each of the three concentrations and negative controls without benzyl benzoate were applied to one square foot of SRI 020 bentgrass or Tiffway hybrid bermudagrass, which was naturally infected with Phormidiumalgae, with a single spray application. The turfgrass was examined empirically for control of the algae as well and toxicity to the grass.

For data set [4], the system named is Phormidium algae. The experiment in a line: Filter paper assay of algicidal activity. Conditions: for Zone of Inhibition: observed 4 days after start. Format: cell-based. The text has this:
Briefly, the filter paper assay is designed to approximate an environment such as that found on a golf course, where algal pests can be particularly damaging. Blended fragment suspensions of Phormidium algae were passed through a coarse Whatman filter paper circle to collect the algal cells. The filter paper was then placed in a large Petri dish containing moist sand. The desired concentration of 10% benzyl benzoate formulation (0.8, 0.3 and 0.1% (w/v) final concentration) was placed on marked areas of the algae field to determine toxic effects. Observations were made 4 days after the test was initiated and were compared to control experiments using the known pesticide Daconil.

For data set [5], the system named is SRI 020 bentgrass or Tiffway hybrid bermudagrass. The experiment in a line: Field test, spray application: toxicity to the grass. Format: in vivo, SRI 020 bentgrass; Tiffway hybrid bermudagrass. To be noted: all concentrations tested (0.8, 0.3, 0.1% w/v), single spray application.
Source text: as §1

Turning to `CCCCCCC(C=O)=Cc1ccccc1` [HCA, α-hexyl cinnamic aldehyde, reference compound], the phytotoxicity to moss entry in the data set with moss is “phytotoxic to moss”.
Take `O=C(OCc1ccccc1)c1ccccc1` [benzyl benzoate]: the phytotoxicity result in data set [1] was “Only small signs of phytotoxicity”. Also, the “Comments (efficacy compared to Daconil)” value is given as “Same efficacy as” in the data set with Phormidium algae [2] (0.1% benzyl benzoate), “Superior to Daconil” with Phormidium algae [2] (0.3% benzyl benzoate) and “Superior to Daconil” with Phormidium algae [2] (0.8% benzyl benzoate). The Lethality result was “no” in the data set with Phormidium algae [2] (0.1% benzyl benzoate final concentration), “yes” in the data set with Phormidium algae [2] (0.3% benzyl benzoate final concentration) and “yes” in the data set on Phormidium algae [2] (0.8% benzyl benzoate final concentration). The algae control result in the data set on Phormidium algae [3] (0.3% (w/v)) was “significant level of control”; in the data set on Phormidium algae [3] (0.8% (w/v)), “most effective algae control”. Moreover, the “Zone of Inhibition” value with Phormidium algae [4] (0.1% (w/v) benzyl benzoate) is recorded as “no”; with Phormidium algae [4] (0.3% (w/v) benzyl benzoate), “yes”; in the data set with Phormidium algae [4] (0.8% (w/v) benzyl benzoate) it was “yes”. Also, the “killing Phormidium” value in the data set on Phormidium algae [4] (0.3% (w/v) benzyl benzoate) and with Phormidium algae [4] (0.8% (w/v) benzyl benzoate) was “very effective” throughout. Also, the “phytotoxic effect (chemical burn) on the two grass species” value in data set [5] was “minimal phytotoxic effect”.
Consider `O=C(OCc1ccccc1)c1ccccc1O` [benzyl salicylate], for which, in the data set with moss, the phytotoxicity to moss result is “phytotoxic to moss”.
